Test results reported in patent publication US20100256214A1, “EPH RECEPTOR LIGANDS AND METHODS OF USE” (Burnham Institute for Medical Research, priority 2009, published 2010).

Key:
alkaline phosphatase = assay: Control: alkaline phosphatase activity in solution; format: biochemical
EphA2 [1] = assay: EphA2 tyrosine phosphorylation in COS7 cells; format: cell-based; settings: for tyrosine phosphorylation of endogenous EphA2: COS7 cells stimulated with ephrin-A1 Fc
Method: (§1) FIGS. 6A-6F. A. HT22 neuronal cells pretreated with the indicated concentrations of compounds 1 or 2 for 15 min were stimulated with 0.5 μg/mL ephrin-A5 Fc (+) or Fc as a control (−) for 20 min in the continued presence of the compounds. EphA4 immunoprecipitates were probed with anti-phosphotyrosine antibody (PTyr) and reprobed for EphA4. C indicates immunoprecipitations performed with control antibodies from non-immunized rabbits. […] Error bars represent the standard error from 4 experiments for compound 1 and 3 experiments for compound 2. […] C. COS7 cells pretreated with the indicated concentrations of compounds 1 or 2 for 15 min were stimulated with 0.1 μg/mL ephrin-A1 Fc or Fc as a control in the continued presence of the compounds. EphA2 immunoprecipitates were probed with anti-phosphotyrosine antibody (PTyr) and reprobed for EphA2. C indicates immunoprecipitations performed with control antibodies. […] Error bars represent the standard error from 2 experiments. Statistical analyses were performed as in (B). HUVE cells were left unstimulated or stimulated with TNFα for 2 hours in the presence of 400 μM compound 1. Duplicate untreated samples are shown. C indicates immunoprecipitations performed with control antibodies. EphA2 immunoprecipitates were probed with anti-phosphotyrosine antibody (PTyr) and reprobed for EphA2. Levels of EphA2 phosphorylation quantified from immunoblots and normalized to the amount of immunoprecipitated EphA2 were also performed. […] The same protocol described in (C) was used, except that COS7 cells were stimulated with 0.5 μg/mL of ephrin-B2 Fc and the EphB2 receptor was immunoprecipitated. F. COS7 cells pretreated with the indicated concentrations of compounds 1 or 2 were stimulated with EGF (+) or left unstimulated (−). Lysates were probed with anti-phosphotyrosine antibody (PTyr) and reprobed for the EGF receptor.
(§2) Measurement of Receptor Tyrosine Phosphorylation in Cells—HT22 neuronal cells, which endogenously express EphA4, are derived from immortalized mouse hippocampal neurons (Li et al. (1997) Neuron 19(2), 453-463). COST cells, which endogenously express EphA2, EphB2 and the EGF receptor (EGFR), were obtained from ATCC. Both cell lines were grown in Dulbecco's Modified Eagle's Medium (DMEM) (Mediatech, Inc, Herndon, Va.) with 10% fetal bovine serum (FBS) (Hyclone, Logan, Utah) and Pen/Strep. For EphA4 immunoprecipitations, HT22 cells were serum-starved overnight in 0.5% FBS in DMEM and incubated for 15 min with the compounds or DMSO as a control. The cells were then stimulated with 0.5 μg/mL ephrin-A5 Fc, ephrin-A4 Fc or Fc for 20 min in the continued presence of the compounds. […] The protein concentration was calculated using the BCA protein assay kit (Pierce Biotecnology, Rockford, Ill.). […]

EGF receptor = EGF receptor phosphorylation in COS7 cells; format: cell-based; settings: COS7 cells stimulated with EGF
EphA2 [2] = target: EphA2 (Homo sapiens, UniProt P29317); assay: EphA2 tyrosine phosphorylation in HUVE endothelial cells treated with TNFα; format: cell-based; set-up: endogenous in cells
Method: FIGS. 6A-6F. A. HT22 neuronal cells pretreated with the indicated concentrations of compounds 1 or 2 for 15 min were stimulated with 0.5 μg/mL ephrin-A5 Fc (+) or Fc as a control (−) for 20 min in the continued presence of the compounds. EphA4 immunoprecipitates were probed with anti-phosphotyrosine antibody (PTyr) and reprobed for EphA4. C indicates immunoprecipitations performed with control antibodies from non-immunized rabbits. […] Error bars represent the standard error from 4 experiments for compound 1 and 3 experiments for compound 2. […] C. COS7 cells pretreated with the indicated concentrations of compounds 1 or 2 for 15 min were stimulated with 0.1 μg/mL ephrin-A1 Fc or Fc as a control in the continued presence of the compounds. EphA2 immunoprecipitates were probed with anti-phosphotyrosine antibody (PTyr) and reprobed for EphA2. C indicates immunoprecipitations performed with control antibodies. […] Levels of EphA2 phosphorylation quantified from immunoblots and normalized to the amount of immunoprecipitated EphA2 were also performed. […]
Measurement of Receptor Tyrosine Phosphorylation in Cells—HT22 neuronal cells, which endogenously express EphA4, are derived from immortalized mouse hippocampal neurons (Li et al. (1997) Neuron 19(2), 453-463). […] The protein concentration was calculated using the BCA protein assay kit (Pierce Biotecnology, Rockford, Ill.). […]

EphA4 = EphA4 (Mus musculus, UniProt Q03137); assay: EphA4 tyrosine phosphorylation in HT22 neuronal cells; format: cell-based; set-up: tyrosine phosphorylation of endogenous EphA4 in HT22 neuronal cells stimulated with ephrin-A5 Fc; endogenous in cells; host or cells: HT22 mouse hippocampal neuronal cells; settings: for ephrin-induced EphA4 tyrosine phosphorylation: HT22 cells stimulated with ephrin-A5 Fc; for EphA4 phosphorylation: cells stimulated with ephrin-A4
Method: as §1, §2

Sequence of EphA4 (Q03137 20-986): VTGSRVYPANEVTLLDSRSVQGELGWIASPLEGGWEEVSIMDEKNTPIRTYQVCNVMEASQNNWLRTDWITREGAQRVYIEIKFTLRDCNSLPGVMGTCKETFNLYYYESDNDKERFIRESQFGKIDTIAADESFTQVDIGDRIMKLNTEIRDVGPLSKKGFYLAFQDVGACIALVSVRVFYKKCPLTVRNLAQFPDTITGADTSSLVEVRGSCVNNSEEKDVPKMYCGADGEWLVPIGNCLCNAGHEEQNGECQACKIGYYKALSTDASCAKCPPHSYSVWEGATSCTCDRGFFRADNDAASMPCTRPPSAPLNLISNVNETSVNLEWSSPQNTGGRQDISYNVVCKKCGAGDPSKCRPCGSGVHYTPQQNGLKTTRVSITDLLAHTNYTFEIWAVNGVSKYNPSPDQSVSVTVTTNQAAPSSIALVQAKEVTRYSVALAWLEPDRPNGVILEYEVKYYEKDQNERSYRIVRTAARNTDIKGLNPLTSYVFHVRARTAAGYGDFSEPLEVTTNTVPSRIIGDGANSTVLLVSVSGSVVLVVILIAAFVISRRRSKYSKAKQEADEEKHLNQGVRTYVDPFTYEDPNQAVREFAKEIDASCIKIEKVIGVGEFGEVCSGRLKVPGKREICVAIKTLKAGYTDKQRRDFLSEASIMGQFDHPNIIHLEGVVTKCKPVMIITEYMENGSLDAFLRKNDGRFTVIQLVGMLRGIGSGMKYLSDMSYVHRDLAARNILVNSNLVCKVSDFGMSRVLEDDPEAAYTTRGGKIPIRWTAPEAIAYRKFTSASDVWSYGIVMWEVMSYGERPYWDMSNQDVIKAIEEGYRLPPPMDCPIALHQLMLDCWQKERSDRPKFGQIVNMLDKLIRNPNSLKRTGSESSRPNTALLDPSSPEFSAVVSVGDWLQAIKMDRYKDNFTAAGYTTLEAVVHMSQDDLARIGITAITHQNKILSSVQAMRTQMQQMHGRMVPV
Sequence of EphA2 (Homo sapiens, UniProt P29317) (P29317 24-976): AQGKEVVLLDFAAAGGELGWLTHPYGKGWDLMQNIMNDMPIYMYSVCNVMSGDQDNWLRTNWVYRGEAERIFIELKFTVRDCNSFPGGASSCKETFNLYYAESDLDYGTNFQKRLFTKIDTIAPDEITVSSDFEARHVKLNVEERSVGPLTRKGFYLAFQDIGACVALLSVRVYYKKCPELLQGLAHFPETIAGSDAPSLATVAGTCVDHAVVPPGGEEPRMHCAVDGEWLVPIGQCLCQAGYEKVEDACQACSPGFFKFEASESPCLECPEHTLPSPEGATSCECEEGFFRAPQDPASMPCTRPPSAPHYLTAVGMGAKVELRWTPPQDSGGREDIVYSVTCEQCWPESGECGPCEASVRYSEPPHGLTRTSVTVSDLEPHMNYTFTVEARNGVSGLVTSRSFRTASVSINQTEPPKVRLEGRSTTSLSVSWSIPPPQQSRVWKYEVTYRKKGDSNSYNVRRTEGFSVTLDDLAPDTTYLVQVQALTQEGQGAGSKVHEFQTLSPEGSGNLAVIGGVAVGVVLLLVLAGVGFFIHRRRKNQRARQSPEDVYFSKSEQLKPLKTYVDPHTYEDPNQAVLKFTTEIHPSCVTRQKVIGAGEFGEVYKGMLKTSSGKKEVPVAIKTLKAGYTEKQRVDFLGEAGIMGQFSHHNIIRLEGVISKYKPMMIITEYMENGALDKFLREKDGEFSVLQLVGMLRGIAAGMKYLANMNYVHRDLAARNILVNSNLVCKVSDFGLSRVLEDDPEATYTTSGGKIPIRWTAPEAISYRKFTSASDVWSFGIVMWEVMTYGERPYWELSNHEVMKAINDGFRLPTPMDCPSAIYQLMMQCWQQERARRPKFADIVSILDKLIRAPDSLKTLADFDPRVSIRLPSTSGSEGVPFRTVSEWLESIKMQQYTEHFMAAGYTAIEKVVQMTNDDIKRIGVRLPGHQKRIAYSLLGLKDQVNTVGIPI

SMILES | inhibition of alkaline phosphatase activity (control) (alkaline phosphatase) | ephrin-dependent degradation of EphA2 (EphA2 [1]) | tyrosine phosphorylation of endogenous EphA2 (EphA2 [1]) | phosphorylation of the EGF receptor (EGF receptor) | tyrosine phosphorylation of endogenous EphA2 (EphA2 [2]) | ephrin-induced EphA4 tyrosine phosphorylation (EphA4) | EphA4 phosphorylation (EphA4)
Cc1ccc(C)n1-c1ccc(C(=O)O)c(O)c1 [compound 1, 4-(2,5-dimethyl-pyrrol-1-yl)-2-hydroxy-benzoic acid] | does not inhibit | prevented | inhibited | did not inhibit | inhibited | blocked | did not inhibit
Cc1ccc(C)n1-c1ccc(O)c(C(=O)O)c1 [compound 2, 5-(2,5 dimethyl-pyrrol-1-yl)-2-hydroxy-benzoic acid] |  | prevented | inhibited | did not inhibit | inhibited | blocked | did not inhibit
